We go through 3 compounds from paper PMC12006963, “Application of Deuterium in an M1 Positive Allosteric Modulator Back-Up Program: The Discovery of VU6045422” (ACS Chemical Neuroscience, 2025).

Assay type in all cases: in vitro ADME
The nature of data set [1]: Predicted hepatic clearance, hepatic microsomes (dog). As to the method:
After a 5 min preincubation, the reaction was initiated by the addition of NADPH (1 mM). At selected time intervals (0, 3, 7, 15, 25, and 45 min), aliquots were taken and subsequently placed into a 96-well plate containing cold acetonitrile with internal standard (50 ng/mL carbamazepine). Plates were then centrifuged at 3000 rcf (4 °C) for 10 min, and the supernatant was transferred to a separate 96-well plate and diluted 1:1 with water for LC/MS/MS analysis. The in vitro half-life ( 1/2, min, Eq. 1), intrinsic clearance (CLint, mL/min/kg, Eq. 2), and subsequent predicted hepatic clearance (CLhep, mL/min/kg, Eq. 3) was determined employing the […]
where k represents the slope from linear regression analysis of the natural log percent remaining of a test compound as a function of incubation time […]
(2) CLint = in vitroT1/2 x mg microsomes x gram liver x kg body wt ascale-up factors: of 20 (human) or 45 (rat) […]
where Qh (hepatic blood flow, mL/min/kg) is 21 (human) or 70 (rat).
LC/MS/MS Bioanalysis of Samples from Plasma Protein Binding and Intrinsic Clearance […]
Samples were analyzed on a Thermo Electron TSQ Quantum Ultra triple quad mass spectrometer (San Jose, CA) via electrospray ionization (ESI) with two Themo Electron Accella pumps (San Jose, CA), and a Leap Technologies CTC PAL autosampler (Carrboro, NC). Analytes were separated by gradient elution on a dual column system with two Thermo Hypersil Gold (2.1 x 30 mm, 1.9 µm) columns (San Jose, CA) thermostated at 40 °C. HPLC mobile phase A was 0.1% formic acid in water and mobile phase B was 0.1% formic acid in acetonitrile. The gradient started […]
for 0.2 min; returned to 10% B in 0.1 min. The total run time was 1.3 min and the HPLC flow rate was 0.8 mL/min. While pump 1 ran the gradient method, pump 2 equilibrated the alternate column isocratically at 10% B. Compound optimization, data collection, and processing was performed using Thermo Electron's QuickQuan software (v2.3) and Xcalibur (v2.0.7 SP1).
In vivo DMPK experimental:
Determination of brain to plasma ratio: […]

A further data set addresses T1, CYP 1A2 (Homo sapiens, UniProt P05177).
T1 sequence (P05177 1-516): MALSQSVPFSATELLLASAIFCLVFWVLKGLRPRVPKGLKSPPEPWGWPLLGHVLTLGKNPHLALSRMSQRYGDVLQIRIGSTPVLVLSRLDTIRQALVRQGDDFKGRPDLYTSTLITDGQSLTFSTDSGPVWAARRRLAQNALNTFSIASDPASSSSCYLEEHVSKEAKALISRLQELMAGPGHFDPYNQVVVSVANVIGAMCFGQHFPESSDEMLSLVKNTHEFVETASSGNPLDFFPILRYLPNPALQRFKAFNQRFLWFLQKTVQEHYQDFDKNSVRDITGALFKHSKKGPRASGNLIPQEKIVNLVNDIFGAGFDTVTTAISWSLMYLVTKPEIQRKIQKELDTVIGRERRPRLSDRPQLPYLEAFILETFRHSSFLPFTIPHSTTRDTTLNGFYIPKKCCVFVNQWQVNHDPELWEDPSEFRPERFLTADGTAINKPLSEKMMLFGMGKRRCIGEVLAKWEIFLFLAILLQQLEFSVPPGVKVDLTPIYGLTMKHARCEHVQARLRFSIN
The data set is described as follows: CYP inhibition 1A2. The text has this: Table 1 Pharmacology and In Vitro DMPK Profiles of M1 PAMs 1, 3, and 5 | column: 1; 3; 5

A short description of data set [2]: Plasma protein binding, equilibrium dialysis (cyno). The conditions noted are these: cynomolgus monkey, pH 7.4, read-out: fu,plasma. Here is the method:
(§1) page 5: Drug Metabolism Methods: In vitro Plasma protein binding and Brain homogenate binding: Determination of fraction unbound (f u) in plasma was conducted in vitro via equilibrium dialysis using HTDialysis (HTD) membrane plates. The top half of the plate was filled with 100 uL of Dubelco’s Phosphate Buffered Saline, pH 7.4 (DPBS). Compounds were diluted into plasma from each species (5 µM final concentration), which was aliquoted in triplicate to the ‘bottom half’ of the prepared HTD plate wells. The HTD plate was sealed and incubated for 6 hours at 37 °C. Following incubation, each well (both top and bottom halves) were transferred (20 µL) to the corresponding wells of a 96- shallow-well (V-bottom) plate. The daughter plates were then matrix-matched (DPBS side wells received equal volume of plasma, and plasma side wells received equal volume of DPBS), and extraction solution (120 µL; acetonitrile containing 50 nM carbamazepine as IS) was added to all wells of both daughter plates to precipitate protein and extract test article. The plates were then sealed and centrifuged (3500 rcf) for 10 minutes at ambient temperature. Supernatant (60 µL) from each well of the daughter plates was then transferred to the corresponding wells of new daughter plates (96-shallow-well, V bottom) containing water (Milli-Q, 60 µL/well), and the plates were sealed in preparation for LC-MS/MS analysis (see LC-MS/MS analysis method below). The unbound fraction (f u) was calculated following the equation below, and mean values for each species were calculated from 3 replicates. […] Fraction unbound for both plasma and brain samples was determined using Equation 4. f = Concbuffer u Concplasma Equation 4 Determination of fraction unbound in plasma. […]
On the technique in general: Equilibrium dialysis compares concentrations on both sides of a semipermeable membrane.

Data set [3] in a line: Predicted hepatic clearance, hepatic microsomes (cyno).
A short description of data set [4]: Plasma protein binding, equilibrium dialysis (dog). Particulars: pH 7.4, read-out: fu,plasma. As to the method: as §1

Structures are written as SMILES.

Broadly, the IC50 is the midpoint of a concentration-inhibition curve. Read a high IC50 as lower potency. Turning to `Cn1cc2c(-c3cc(F)c(CN4Cc5ncccc5C4=O)c(F)c3)cccc2n1` [compound 1], the “Predicted CLhep” value is 5.5 mL/min/kg in data set [1] and 5.6 mL/min/kg in data set [3]. This compound also had a 50% inhibitory concentration (IC50) at CYP 1A2 of 14.2 µM. The fraction unbound at 6 h, 5 µM in data set [2] turned out to be 0.059; in data set [4] it was 0.076.

Take `[2H]C1([2H])c2ncccc2C(=O)N1Cc1c(F)cc(-c2cccc3nn(C)cc23)cc1F` [compound 3]: the “Predicted CLhep” value in data set [1] was 14.4 mL/min/kg; in data set [3], 27.4 mL/min/kg. The compound also showed an IC50 against CYP 1A2 of more than 30 µM. The figures for the fraction unbound at 6 h, 5 µM in data set [2] and in data set [4] were 0.039 and 0.082, respectively.

As for `[2H]C1([2H])c2ncccc2C(=O)N1Cc1c(F)cc(-c2cccc3nn(C([2H])([2H])[2H])cc23)cc1F` [compound 5], the “Predicted CLhep” value in data set [1] is given as 8.8 mL/min/kg; in data set [3] it was 27.5 mL/min/kg. In addition, the concentration for half-maximal inhibition (IC50) at CYP 1A2 is more than 30 µM. In addition, the values for the fraction unbound at 6 h, 5 µM in data set [2] and in data set [4] were 0.044 and 0.119, respectively.
